From US8431706B2, “1,2,3,4-tetrahydroqinoline derivative useful for the treatment of diabetes” (Eli Lilly and Company, priority 2011, dated 2013) come the findings set out here.

Assay [1] has as its target T1, PPARα (Homo sapiens, UniProt Q07869).
T1 construct: made in house; host or cells: HEK293 (cell lysates)
T1 sequence (Q07869 1-468): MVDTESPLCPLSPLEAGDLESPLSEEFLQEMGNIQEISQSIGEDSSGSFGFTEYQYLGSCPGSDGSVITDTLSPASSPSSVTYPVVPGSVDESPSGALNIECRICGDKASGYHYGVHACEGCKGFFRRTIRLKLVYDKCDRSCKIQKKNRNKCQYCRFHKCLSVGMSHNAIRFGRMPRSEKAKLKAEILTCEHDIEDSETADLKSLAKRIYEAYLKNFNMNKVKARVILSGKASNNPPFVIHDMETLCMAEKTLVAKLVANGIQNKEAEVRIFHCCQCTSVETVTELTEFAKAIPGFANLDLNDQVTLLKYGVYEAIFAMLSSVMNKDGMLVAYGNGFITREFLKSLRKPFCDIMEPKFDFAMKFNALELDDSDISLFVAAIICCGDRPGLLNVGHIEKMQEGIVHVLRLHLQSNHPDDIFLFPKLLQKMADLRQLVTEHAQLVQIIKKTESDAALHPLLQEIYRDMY
T1 sequence (P19793 1-462 partner): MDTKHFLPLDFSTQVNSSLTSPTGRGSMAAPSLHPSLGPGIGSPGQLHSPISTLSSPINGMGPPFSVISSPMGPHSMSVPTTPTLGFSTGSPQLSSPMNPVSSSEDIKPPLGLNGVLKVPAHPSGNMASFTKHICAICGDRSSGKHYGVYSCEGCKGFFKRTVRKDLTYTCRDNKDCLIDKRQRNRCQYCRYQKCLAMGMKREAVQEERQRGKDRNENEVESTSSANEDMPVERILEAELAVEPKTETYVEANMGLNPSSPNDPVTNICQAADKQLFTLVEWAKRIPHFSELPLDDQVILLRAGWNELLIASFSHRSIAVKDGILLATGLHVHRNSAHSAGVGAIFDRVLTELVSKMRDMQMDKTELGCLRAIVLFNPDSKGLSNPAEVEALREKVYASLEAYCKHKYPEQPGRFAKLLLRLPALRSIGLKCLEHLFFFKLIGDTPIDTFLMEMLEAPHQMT
Description: PPARα binding assay (SPA). Here is the method:
Because GPR40 is known to be activated by ligands to PPARγ, the exemplified compound is examined in PPARα, PPARδ, and PPARγ binding and functional assays to determine the selectivity of the compound of Example 1 for GPR40.
Binding affinities of the compound for the PPAR α, δ, and γ receptors are assessed using Scintillation Proximity Assay (SPA) technology. Biotinylated oligonucleotide Direct Repeat 2 (DR2) is used for binding the receptors to Yttrium silicate streptavidin-coated SPA beads. PPAR α, δ, γ and retinoid X receptor (RXR) α are over expressed in HEK293 cells, and cell lysates containing the specific receptors are used in the individual assays. The DR2 is attached to the SPA beads over a 30 minute period in a binding buffer containing 10 mM HEPES pH 7.8, 80 mM KCl, 0.5 mM MgCl2, 1 mM DTT, 0.5% 3[(3-cholamidopropyl)dimethylammonio]-propanesulfonic acid (CHAPS), and 4.4% bovine serum. […] Non-specific binding is determined in the presence of 10,000 nM of the unlabeled PPAR α/δ dual agonist reference compound for the alpha and delta receptor assays and the PPARγ agonist reference compound for the gamma receptor assay. The binding reaction (100 μl per well in a 96 well [Costar 3632] plate) is incubated for 10 h and counted disintegration per minutes (dpm) on a Wallac Microbeta. Receptor binding affinity (IC50) for the compound is determined by fitting an 11 point concentration-response curve with a 4-parameter logistic equation. Ki is determined from the IC50 using the Cheng-Prussoff equation and Kd determined by saturation binding. […]

For assay [2], the system named is primary rodent pancreatic islets of Langerhans. Description: GDIS assay in primary rodent pancreatic islets. Format: cell-based. To be noted: 3.0 uM with rat islets and 11.2 mM glucose; compared to 11.2 mM glucose; 90 min; P<0.05. The text has this:
Because activation of GPR40 is known to result in insulin secretion, which is dependent on high glucose concentrations, two separate assay systems (an insulinoma cell line and primary rodent islets) are developed to further characterize compounds that are known to increase intracellular calcium in the GPR40 primary assay discussed above.
GDIS assays using primary rodent pancreatic islets of Langerhans are also used to characterize the exemplified compound. Pancreatic islets are isolated from male SD (Sprague Dawley) rats by collagenase digestion and Histopaque density gradient separation. The islets are cultured overnight in RPMI-1640 medium with GlutaMAXn (stabilized, dipeptide form of L-glutamine (Invitrogen catalog #61870-010)) to facilitate recovery from the isolation process. Insulin secretion is determined by a 90 minute incubation in EBSS (Earle's Balances Salt Solution) buffer in a 48-well plate. Briefly, islets are first preincubated in EBSS with 2.8 mM glucose for 30 min, and are then transferred to a 48-well plate (four islets/well) containing 150 μl 2.8 mM glucose, and incubated with 150 μl of EBSS with 2.8 or 11.2 mM glucose in the presence or absence of test compound for 90 minutes. The buffer is removed from the wells at the end of the incubation, and assayed for insulin levels using the Rat Insulin ELISA kit (Mercodia). […]

Assay [3] addresses human GPR40 (Homo sapiens, UniProt O14842). To be noted: maximal response compared to the natural ligand, linoleic acid.

Some results are limits rather than exact numbers.

human GPR40, sequence (O14842 whole entry): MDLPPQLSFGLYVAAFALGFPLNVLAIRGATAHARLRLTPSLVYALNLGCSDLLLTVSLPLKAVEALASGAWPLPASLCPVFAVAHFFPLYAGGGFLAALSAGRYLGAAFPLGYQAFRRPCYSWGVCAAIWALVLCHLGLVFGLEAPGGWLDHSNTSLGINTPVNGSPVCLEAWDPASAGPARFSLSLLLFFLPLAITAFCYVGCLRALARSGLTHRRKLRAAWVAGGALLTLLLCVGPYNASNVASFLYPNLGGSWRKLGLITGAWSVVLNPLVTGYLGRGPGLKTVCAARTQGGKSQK

What is called IC50 is the concentration that inhibits the measured activity by half. Consider `CC#C[C@@H](CC(=O)O)c1ccc(OCc2ccc(CN3CCCc4cccc(OC)c43)s2)cc1` [Example 1, (3S)-3-[4-[[5-[(8-Methoxy-3,4-dihydro-2H-quinolin-1-yl)methyl]-2-thienyl]methoxy]phenyl]hex-4-ynoic acid], for which the binding entry in assay [1] (concentrations up to 10 μM) was “no binding is detected”. In addition, the IC50 in assay [1] (tested up to 30 μM, read-out: relative IC50) is > 10 µM. Also, in assay [1] (with 10 μM concentrations of test compound), the PPAR binding values entry is reported as “greater than 1000 nM”. Further, in assay [2], the increase in insulin turned out to be 2.1 fold. Besides, in assay [3], the Percent efficacy is reported as 84+/−24%.
